Assay results published in the supplement of paper PMC10733146.

How the values were obtained:
Assay in all cases: viability relative to DMSO control (fraction); higher = less drug effect (more viable cells)
Settings in all cases: 48 h
[1] = system: primary MCL patient cells (S041)
In short: (§1)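 Primary mononuclear tumour cells (Ficoll-isolated from blood or bone marrow, or processed lymph node; fresh or cryopreserved) were plated at 4 × 10^4 cells per well in 384-well plates with pre-plated compounds at five concentrations, one well each. Medium was RPMI-1640 with penicillin/streptomycin, L-glutamine and human serum, at 37 °C and 5% CO2 for 48 h. Viability was read as CellTiter-Glo luminescence relative to the median of 16 inner DMSO wells.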

[2] = system: primary MCL patient cells (S053)
In short: as §1

[3] = system: primary BL patient cells (S005)
In short: as §1

[4] = system: primary B-PLL patient cells (S016)
In short: as §1

[5] = system: primary AML patient cells (S071)
In short: as §1

[6] = system: primary AML patient cells (S060)
In short: as §1

[7] = system: primary MCL patient cells (S063)
In short: as §1

[8] = system: primary AML patient cells (S006)
In short: as §1

[9] = system: primary CLL patient cells (S043)
In short: as §1

[10] = system: primary AML patient cells (S079)
In short: as §1

[11] = system: primary FL patient cells (S087)
In short: as §1

[12] = system: primary AML patient cells (S012)
In short: as §1

[13] = system: primary AML patient cells (S085)
In short: as §1

[14] = system: primary AML patient cells (S072)
In short: as §1

[15] = system: primary AML patient cells (S009)
In short: as §1

[16] = system: primary AML patient cells (S056)
In short: as §1

[17] = system: primary AML patient cells (S017)
In short: as §1

[18] = system: primary ALL patient cells (S088)
In short: as §1

[19] = system: primary DLBCL patient cells (S082)
In short: as §1

[20] = system: primary CLL patient cells (S031)
In short: as §1

SMILES: O=C(Nc1nc2ccccc2n1CCN1CCOCC1)c1cccc([N+](=O)[O-])c1 [IRAK-1/4 INHIBITOR I]
- viability ([1]; 0.016 µM): 0.947
- viability ([1]; 0.08 µM): 1.1
- viability ([1]; 0.4 µM): 0.955
- viability ([1]; 2 µM): 0.981
- viability ([1]; 10 µM): 0.993
- viability ([2]; 0.016 µM): 0.823
- viability ([2]; 0.08 µM): 0.939
- viability ([2]; 0.4 µM): 0.915
- viability ([2]; 2 µM): 0.977
- viability ([2]; 10 µM): 1.09
- viability ([3]; 0.016 µM): 1.02
- viability ([3]; 0.08 µM): 1.09
- viability ([3]; 0.4 µM): 1.04
- viability ([3]; 2 µM): 0.984
- viability ([3]; 10 µM): 1.09
- viability ([4]; 0.016 µM): 0.968
- viability ([4]; 0.08 µM): 1.05
- viability ([4]; 0.4 µM): 0.969
- viability ([4]; 2 µM): 0.937
- viability ([4]; 10 µM): 1.04
- viability ([5]; 0.016 µM): 0.925
- viability ([5]; 0.08 µM): 0.918
- viability ([5]; 0.4 µM): 0.815
- viability ([5]; 2 µM): 0.783
- viability ([5]; 10 µM): 0.636
- viability ([6]; 0.016 µM): 0.973
- viability ([6]; 0.08 µM): 1
- viability ([6]; 0.4 µM): 0.974
- viability ([6]; 2 µM): 1
- viability ([6]; 10 µM): 1.02
- viability ([7]; 0.016 µM): 0.993
- viability ([7]; 0.08 µM): 0.961
- viability ([7]; 0.4 µM): 1.02
- viability ([7]; 2 µM): 1.03
- viability ([7]; 10 µM): 1.11
- viability ([8]; 0.016 µM): 0.952
- viability ([8]; 0.08 µM): 0.975
- viability ([8]; 0.4 µM): 0.887
- viability ([8]; 2 µM): 0.751
- viability ([8]; 10 µM): 0.691
- viability ([9]; 0.016 µM): 0.825
- viability ([9]; 0.08 µM): 0.885
- viability ([9]; 0.4 µM): 0.838
- viability ([9]; 2 µM): 0.845
- viability ([9]; 10 µM): 0.861
- viability ([10]; 0.016 µM): 0.929
- viability ([10]; 0.08 µM): 0.93
- viability ([10]; 0.4 µM): 0.885
- viability ([10]; 2 µM): 0.906
- viability ([10]; 10 µM): 0.949
- viability ([11]; 0.016 µM): 0.933
- viability ([11]; 0.08 µM): 1.02
- viability ([11]; 0.4 µM): 0.989
- viability ([11]; 2 µM): 0.994
- viability ([11]; 10 µM): 1.08
- viability ([12]; 0.016 µM): 0.922
- viability ([12]; 0.08 µM): 0.993
- viability ([12]; 0.4 µM): 0.908
- viability ([12]; 2 µM): 0.954
- viability ([12]; 10 µM): 0.964
- viability ([13]; 0.016 µM): 0.957
- viability ([13]; 0.08 µM): 0.985
- viability ([13]; 0.4 µM): 1.05
- viability ([13]; 2 µM): 1.04
- viability ([13]; 10 µM): 1.02
- viability ([14]; 0.016 µM): 0.921
- viability ([14]; 0.08 µM): 0.985
- viability ([14]; 0.4 µM): 0.909
- viability ([14]; 2 µM): 0.869
- viability ([14]; 10 µM): 0.916
- viability ([15]; 0.016 µM): 1.01
- viability ([15]; 0.08 µM): 0.993
- viability ([15]; 0.4 µM): 0.965
- viability ([15]; 2 µM): 0.933
- viability ([15]; 10 µM): 0.98
- viability ([16]; 0.016 µM): 0.693
- viability ([16]; 0.08 µM): 1.13
- viability ([16]; 0.4 µM): 0.585
- viability ([16]; 2 µM): 0.817
- viability ([16]; 10 µM): 0.783
- viability ([17]; 0.016 µM): 0.904
- viability ([17]; 0.08 µM): 0.962
- viability ([17]; 0.4 µM): 0.889
- viability ([17]; 2 µM): 0.932
- viability ([17]; 10 µM): 0.937
- viability ([18]; 0.016 µM): 0.747
- viability ([18]; 0.08 µM): 0.862
- viability ([18]; 0.4 µM): 0.856
- viability ([18]; 2 µM): 0.826
- viability ([18]; 10 µM): 0.941
- viability ([19]; 0.016 µM): 0.863
- viability ([19]; 0.08 µM): 0.932
- viability ([19]; 0.4 µM): 0.926
- viability ([19]; 2 µM): 1.02
- viability ([19]; 10 µM): 1.07
- viability ([20]; 0.016 µM): 0.897
- viability ([20]; 0.08 µM): 0.91
- viability ([20]; 0.4 µM): 0.906
- viability ([20]; 2 µM): 0.861
- viability ([20]; 10 µM): 0.877

SMILES: Nc1ccc2ncnc(NCCc3ccc(Oc4ccccc4)cc3)c2c1 [EVP4593]
- viability ([1]; 0.008 µM): 0.902
- viability ([1]; 0.04 µM): 0.93
- viability ([1]; 0.2 µM): 0.873
- viability ([1]; 1 µM): 0.716
- viability ([1]; 5 µM): 0.729
- viability ([2]; 0.008 µM): 0.876
- viability ([2]; 0.04 µM): 0.875
- viability ([2]; 0.2 µM): 0.821
- viability ([2]; 1 µM): 0.672
- viability ([2]; 5 µM): 0.642
- viability ([3]; 0.008 µM): 1.01
- viability ([3]; 0.04 µM): 0.939
- viability ([3]; 0.2 µM): 0.811
- viability ([3]; 1 µM): 0.73
- viability ([3]; 5 µM): 0.716
- viability ([4]; 0.008 µM): 0.929
- viability ([4]; 0.04 µM): 0.874
- viability ([4]; 0.2 µM): 0.8
- viability ([4]; 1 µM): 0.716
- viability ([4]; 5 µM): 0.713
- viability ([5]; 0.008 µM): 0.768
- viability ([5]; 0.04 µM): 0.684
- viability ([5]; 0.2 µM): 0.351
- viability ([5]; 1 µM): 0.158
- viability ([5]; 5 µM): 0.121
- viability ([6]; 0.008 µM): 1.01
- viability ([6]; 0.04 µM): 1
- viability ([6]; 0.2 µM): 0.97
- viability ([6]; 1 µM): 0.961
- viability ([6]; 5 µM): 0.966
- viability ([7]; 0.008 µM): 0.934
- viability ([7]; 0.04 µM): 0.945
- viability ([7]; 0.2 µM): 0.924
- viability ([7]; 1 µM): 0.874
- viability ([7]; 5 µM): 0.866
- viability ([8]; 0.008 µM): 0.855
- viability ([8]; 0.04 µM): 0.755
- viability ([8]; 0.2 µM): 0.557
- viability ([8]; 1 µM): 0.362
- viability ([8]; 5 µM): 0.248
- viability ([9]; 0.008 µM): 0.794
- viability ([9]; 0.04 µM): 0.794
- viability ([9]; 0.2 µM): 0.774
- viability ([9]; 1 µM): 0.726
- viability ([9]; 5 µM): 0.695
- viability ([10]; 0.008 µM): 0.818
- viability ([10]; 0.04 µM): 0.84
- viability ([10]; 0.2 µM): 0.806
- viability ([10]; 1 µM): 0.675
- viability ([10]; 5 µM): 0.646
- viability ([11]; 0.008 µM): 0.933
- viability ([11]; 0.04 µM): 0.915
- viability ([11]; 0.2 µM): 0.862
- viability ([11]; 1 µM): 0.811
- viability ([11]; 5 µM): 0.79
- viability ([12]; 0.008 µM): 1.05
- viability ([12]; 0.04 µM): 1.03
- viability ([12]; 0.2 µM): 1.07
- viability ([12]; 1 µM): 0.992
- viability ([12]; 5 µM): 1.05
- viability ([13]; 0.008 µM): 2.31
- viability ([13]; 0.04 µM): 0.901
- viability ([13]; 0.2 µM): 1.11
- viability ([13]; 1 µM): 0.666
- viability ([13]; 5 µM): 0.55
- viability ([14]; 0.008 µM): 0.844
- viability ([14]; 0.04 µM): 0.823
- viability ([14]; 0.2 µM): 0.772
- viability ([14]; 1 µM): 0.637
- viability ([14]; 5 µM): 0.652
- viability ([15]; 0.008 µM): 0.792
- viability ([15]; 0.04 µM): 0.705
- viability ([15]; 0.2 µM): 0.749
- viability ([15]; 1 µM): 0.636
- viability ([15]; 5 µM): 0.691
- viability ([16]; 0.008 µM): 0.691
- viability ([16]; 0.04 µM): 0.627
- viability ([16]; 0.2 µM): 0.412
- viability ([16]; 1 µM): 0.313
- viability ([16]; 5 µM): 0.307
- viability ([17]; 0.008 µM): 0.889
- viability ([17]; 0.04 µM): 0.933
- viability ([17]; 0.2 µM): 0.875
- viability ([17]; 1 µM): 0.901
- viability ([17]; 5 µM): 0.795
- viability ([18]; 0.008 µM): 0.151
- viability ([18]; 0.04 µM): 0.168
- viability ([18]; 0.2 µM): 0.147
- viability ([18]; 1 µM): 0.108
- viability ([18]; 5 µM): 0.088
- viability ([19]; 0.008 µM): 0.83
- viability ([19]; 0.04 µM): 0.736
- viability ([19]; 0.2 µM): 0.588
- viability ([19]; 1 µM): 0.462
- viability ([19]; 5 µM): 0.452
- viability ([20]; 0.008 µM): 0.884
- viability ([20]; 0.04 µM): 0.854
- viability ([20]; 0.2 µM): 0.803
- viability ([20]; 1 µM): 0.686
- viability ([20]; 5 µM): 0.601
